Values joined by “and” are separate entries in the source; they are usually repeats but may differ in a detail not shown here. Identical values can stand only once. Inconclusive results and toxic doses are left out. Rule for the calls: active = survival T/C of 150% or more; inactive = T/C below 125% in these data.
Tested on: CD2F1 mice, L1210 leukemia ip, survival T/C
Assay: NCI In Vivo Anticancer Drug Screen. Data for tumor model L1210 Leukemia (intraperitoneal) in CD2F1 (CDF1) mice
Conditions: higher = longer survival
In short: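 Each value reflects a quotient of treated over vehicle control outcomes in mice with a transplanted tumor.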

[1] = endpoint: mean survival time, dose: 100.0 mg/kg/injection, schedule: Q04DX003 (ip), vehicle: saline with Tween-80
[2] = endpoint: mean survival time, dose: 200.0 mg/kg/injection, schedule: Q04DX003 (ip), vehicle: saline with Tween-80
[3] = endpoint: mean survival time, dose: 400.0 mg/kg/injection, schedule: Q04DX003 (ip), vehicle: saline with Tween-80
[4] = endpoint: mean survival time, dose: 100.0 mg/kg/injection, schedule: Q01DX009 (ip), vehicle: saline with Tween-80
[5] = endpoint: mean survival time, dose: 200.0 mg/kg/injection, schedule: Q01DX009 (ip), vehicle: saline with Tween-80
[6] = endpoint: mean survival time, dose: 400.0 mg/kg/injection, schedule: Q01DX009 (ip), vehicle: saline with Tween-80
[7] = endpoint: mean survival time, dose: 12.5 mg/kg/injection, schedule: Q01DX009 (ip), vehicle: saline with Tween-80
[8] = endpoint: mean survival time, dose: 25.0 mg/kg/injection, schedule: Q01DX009 (ip), vehicle: saline with Tween-80
[9] = endpoint: mean survival time, dose: 200.0 mg/kg/injection, schedule: Q04DX003 (ip), vehicle: saline
[10] = endpoint: mean survival time, dose: 25.0 mg/kg/injection, schedule: Q04DX002 (ip), vehicle: saline with Tween-80
[11] = endpoint: mean survival time, dose: 50.0 mg/kg/injection, schedule: Q04DX002 (ip), vehicle: saline with Tween-80
[12] = endpoint: mean survival time, dose: 100.0 mg/kg/injection, schedule: Q04DX003 (ip), vehicle: saline
[13] = endpoint: mean survival time, dose: 400.0 mg/kg/injection, schedule: Q04DX003 (ip), vehicle: saline
[14] = endpoint: mean survival time, dose: 50.0 mg/kg/injection, schedule: Q01DX009 (ip), vehicle: saline with Tween-80

Measured: T/C

O=C(O)c1cc(-c2ccc(F)cc2)nc2ccc(F)cc12
inactive: [1] 101 % of control | [2] 97 % of control

COc1cccc(CNc2ncnc3nc[nH]c23)c1
inactive: [1] 92 % of control | [2] 91 % of control | [3] 97 % of control

CN(C)C=O
inactive: endpoint: mean survival time, dose: 25.0 mg/kg/injection, schedule: Q01DX009 (ip), vehicle: saline 101 % of control | endpoint: mean survival time, dose: 50.0 mg/kg/injection, schedule: Q01DX009 (ip), vehicle: saline 97 % of control | endpoint: mean survival time, dose: 100.0 mg/kg/injection, schedule: Q01DX009 (ip), vehicle: saline 101 % of control | endpoint: mean survival time, dose: 100.0 mg/kg/injection, schedule: Q04DX002 (ip), vehicle: saline 111 % of control | endpoint: mean survival time, dose: 200.0 mg/kg/injection, schedule: Q01DX009 (ip), vehicle: saline 100 % of control | endpoint: mean survival time, dose: 200.0 mg/kg/injection, schedule: Q04DX002 (ip), vehicle: saline 96 % of control | endpoint: mean survival time, dose: 400.0 mg/kg/injection, schedule: Q01DX009 (ip), vehicle: saline 109 % of control | endpoint: mean survival time, dose: 400.0 mg/kg/injection, schedule: Q04DX002 (ip), vehicle: saline 111 % of control | endpoint: mean survival time, dose: 800.0 mg/kg/injection, schedule: Q01DX009 (ip), vehicle: saline 106 % of control | endpoint: mean survival time, dose: 1600.0 mg/kg/injection, schedule: Q01DX009 (ip), vehicle: saline 105 % of control

O=S(=O)(/C=C\S(=O)(=O)c1ccccc1)c1ccccc1
inactive: endpoint: mean survival time, dose: 12.5 mg/kg/injection, schedule: Q01DX009 (ip), vehicle: Klucel (hydroxypropylcellulose) (HPC) 98 % of control | endpoint: mean survival time, dose: 25.0 mg/kg/injection, schedule: Q01DX009 (ip), vehicle: Klucel (hydroxypropylcellulose) (HPC) 95 % of control

O=C1CC(=O)NC(=O)C1
inactive: endpoint: mean survival time, dose: 12.5 mg/kg/injection, schedule: Q01DX009 (ip), vehicle: water 95 % of control | endpoint: mean survival time, dose: 25.0 mg/kg/injection, schedule: Q01DX009 (ip), vehicle: water 92 % of control | endpoint: mean survival time, dose: 50.0 mg/kg/injection, schedule: Q01DX009 (ip), vehicle: water 94 % of control | endpoint: mean survival time, dose: 100.0 mg/kg/injection, schedule: Q01DX009 (ip), vehicle: water 92 % of control | endpoint: mean survival time, dose: 200.0 mg/kg/injection, schedule: Q01DX009 (ip), vehicle: water 94 % of control

C(#Cc1ccccc1)c1ccccc1.Cc1ccc([PH+](c2ccccc2)c2ccccc2)cc1.Cc1ccc([PH+](c2ccccc2)c2ccccc2)cc1.[Pt]
inactive: endpoint: median survival time, dose: 3.13 mg/kg/injection, schedule: Q04DX003 (ip), vehicle: distilled water + Tween-80 100 % of control | endpoint: median survival time, dose: 6.25 mg/kg/injection, schedule: Q04DX003 (ip), vehicle: distilled water + Tween-80 101 % of control | endpoint: median survival time, dose: 12.5 mg/kg/injection, schedule: Q04DX003 (ip), vehicle: distilled water + Tween-80 105 % of control | endpoint: median survival time, dose: 25.0 mg/kg/injection, schedule: Q04DX003 (ip), vehicle: distilled water + Tween-80 89 % of control | endpoint: median survival time, dose: 50.0 mg/kg/injection, schedule: Q04DX003 (ip), vehicle: distilled water + Tween-80 90 % of control | endpoint: median survival time, dose: 100.0 mg/kg/injection, schedule: Q04DX003 (ip), vehicle: distilled water + Tween-80 94 % of control

C[N+](C)=CN1c2ccccc2Sc2ccccc21
inactive: [4] 97 % of control | [5] 103 % of control

COc1ccc(OC)c(NC(=O)N2CCCC(C)C2)c1 (configuration not stated)
inactive: endpoint: mean survival time, dose: 88.0 mg/kg/injection, schedule: Q01DX009 (ip), vehicle: other 95 % of control | endpoint: mean survival time, dose: 100.0 mg/kg/injection, schedule: Q01DX009 (ip), vehicle: other 124 % of control | endpoint: mean survival time, dose: 133.0 mg/kg/injection, schedule: Q01DX009 (ip), vehicle: other 95 % of control | endpoint: mean survival time, dose: 300.0 mg/kg/injection, schedule: Q01DX009 (ip), vehicle: other 95 % of control

O=C(SSC(=O)c1ccccc1)c1ccccc1
inactive: [4] 95 % of control | [1] 98 % of control | [5] 103 % of control | [2] 102 % of control | [6] 91 % of control | [3] 96 % of control

CN(C)CCCN1c2ccccc2Sc2ccc(Cl)cc21
inactive: endpoint: mean survival time, dose: 12.5 mg/kg/injection, schedule: Q01DX001 (ip), vehicle: saline 107 % of control | [7] 115 % of control | endpoint: mean survival time, dose: 25.0 mg/kg/injection, schedule: Q01DX001 (ip), vehicle: saline 117 % of control | [8] 86 % of control | endpoint: mean survival time, dose: 50.0 mg/kg/injection, schedule: Q01DX001 (ip), vehicle: saline 120 % of control | endpoint: mean survival time, dose: 100.0 mg/kg/injection, schedule: Q01DX001 (ip), vehicle: saline 111 % of control | [9] 97 % of control | endpoint: median survival time, dose: 15.0 mg/kg/injection, schedule: Q01DX001 (ip), vehicle: water 118 % of control and 107 % of control | endpoint: median survival time, dose: 25.0 mg/kg/injection, schedule: Q01DX001 (ip), vehicle: water 119 % of control and 107 % of control | endpoint: median survival time, dose: 30.0 mg/kg/injection, schedule: Q04DX003 (ip), vehicle: saline 80 % of control | endpoint: median survival time, dose: 50.0 mg/kg/injection, schedule: Q01DX001 (ip), vehicle: water 114 % of control and 120 % of control | endpoint: median survival time, dose: 60.0 mg/kg/injection, schedule: Q04DX003 (ip), vehicle: saline 80 % of control | endpoint: median survival time, dose: 75.0 mg/kg/injection, schedule: Q01DX001 (ip), vehicle: water 114 % of control | endpoint: median survival time, dose: 120.0 mg/kg/injection, schedule: Q04DX003 (ip), vehicle: saline 87 % of control

CC1CCSCS1 (configuration not stated)
inactive: endpoint: mean survival time, dose: 12.5 mg/kg/injection, schedule: Q04DX002 (ip), vehicle: saline with Tween-80 97 % of control | [10] 102 % of control | [11] 102 % of control

Cc1c(N)c(=O)n(-c2ccccc2)n1C
inactive: [12] 97 % of control | [9] 103 % of control | [13] 101 % of control

C=CCNC(=O)C(O)C(O)C(=O)NCC=C (configuration not stated)
inactive: endpoint: mean survival time, dose: 100.0 mg/kg/injection, schedule: Q01DX009 (ip), vehicle: acetone 101 % of control | endpoint: mean survival time, dose: 100.0 mg/kg/injection, schedule: Q04DX003 (ip), vehicle: acetone 98 % of control | endpoint: mean survival time, dose: 200.0 mg/kg/injection, schedule: Q01DX009 (ip), vehicle: acetone 96 % of control | endpoint: mean survival time, dose: 200.0 mg/kg/injection, schedule: Q04DX003 (ip), vehicle: acetone 100 % of control | endpoint: mean survival time, dose: 400.0 mg/kg/injection, schedule: Q01DX009 (ip), vehicle: acetone 98 % of control | endpoint: mean survival time, dose: 400.0 mg/kg/injection, schedule: Q04DX003 (ip), vehicle: acetone 112 % of control

CCC1=C/C(=C\c2ccc3c(c2)OCO3)C(=O)S1
inactive: [10] 93 % of control | [11] 89 % of control | endpoint: mean survival time, dose: 100.0 mg/kg/injection, schedule: Q04DX002 (ip), vehicle: saline with Tween-80 93 % of control

C=CC1CC[N-]CC1.C=CC1CC[N-]CC1.C=CC1CC[N-]CC1.[Cl][Cr]([Cl])[Cl]
inactive: [12] 102 % of control

COCC1OC(OC(=O)c2ccccc2)C(OC(=O)c2ccccc2)C(OC(=O)c2ccccc2)C1OC (configuration not stated)
inactive: [14] 101 % of control | [5] 93 % of control

c1ccc2c(c1)Cc1nc3ccccc3nc1-2
inactive: [4] 94 % of control | [1] 105 % of control | [5] 94 % of control | [2] 103 % of control | [6] 97 % of control | [3] 97 % of control

O=C1NC(O)c2ccccc2O1 (configuration not stated)
inactive: [7] 101 % of control | endpoint: mean survival time, dose: 12.5 mg/kg/injection, schedule: Q01DX009 (ip), vehicle: suspension in saline 95 % of control | [8] 96 % of control | endpoint: mean survival time, dose: 25.0 mg/kg/injection, schedule: Q01DX009 (ip), vehicle: suspension in saline 97 % of control | [14] 98 % of control | endpoint: mean survival time, dose: 50.0 mg/kg/injection, schedule: Q01DX009 (ip), vehicle: suspension in saline 104 % of control | [4] 101 % of control and 108 % of control | endpoint: mean survival time, dose: 100.0 mg/kg/injection, schedule: Q01DX009 (ip), vehicle: suspension in saline 101 % of control | [5] 115 % of control and 106 % of control | endpoint: mean survival time, dose: 200.0 mg/kg/injection, schedule: Q01DX009 (ip), vehicle: suspension in saline 119 % of control | endpoint: mean survival time, dose: 400.0 mg/kg/injection, schedule: Q01DX009 (ip), vehicle: suspension in saline 95 % of control

S=C(S)N1CCCC1
inactive: [12] 95 % of control | [9] 95 % of control | [13] 92 % of control

Cc1nc(-c2ccccc2)[nH]c(=O)c1CC(C)O (configuration not stated)
inactive: [4] 91 % of control | [1] 94 % of control | [5] 96 % of control | [2] 95 % of control | [3] 92 % of control
